Experimental data: patent US5059627A, “Nerve growth factor secretion inducing composition” (Takeda Chemical Industries, Ltd., priority 1989, dated 1991)

Columns and labels:
in vivo = conditions: mouse, po
mice = conditions: po, groups of 10

## Cc1cc(O)c(C)c(C)c1O [2,3,5-Trimethyl-1,4-hydroquinone, 2,3,5-trimethyl-1,4-hydroquinone]
In vivo
  LD50: > 500 mg/kg

## COc1c(O)c(C)c(CCCCCCCCCCO)c(O)c1OC [6-(10-hydroxydecyl)-2,3-dimethoxy-5-methyl-1,4-hydroquinone]
In vivo
  LD50: > 1000 mg/kg

## COC1=C(OC)C(=O)C(C/C=C(\C)CCC=C(C)C)=C(C)C1=O [Ubiquinone-2, ubiquinone-2]
In vivo
  LD50: > 500 mg/kg

## CC1=CC(=O)c2ccccc2C1=O [Vitamin K0, vitamin K0]
mice
  LD50: 500 mg/kg
